According to ChEMBL document CHEMBL4312011, “Synthesis and biological evaluation of triterpenoid thiazoles derived from betulonic acid, dihydrobetulonic acid, and ursonic acid” (Eur J Med Chem, 2020):
Values after ≈ are worked out from the molar mass of the structure shown. Active and inactive are the calls of the source. The rule behind the calls is not given here.

Columns and labels:
[1] = tested on: CCRF-CEM; assay: Cell cycle arrest in human CCRF-CEM cells assessed as decrease in proportion of cells in G1 phase at 5 times IC50 measured after 24 hrs by propidium iodide/RNase staining based flow cytometry analysis; type: functional
[2] = Cytotoxicity against human K562-TAX cells incubated for 72 hrs by MTS assay; type: functional, cell-based
[3] = Protein binding in human plasma at 10 uM measured after 4 hrs by rapid equilibrium dialysis; type: ADME, cell-free; conditions: read-out: PPB (converted)
[4] = tested on: CCRF-CEM; assay: Induction of apoptosis in human CCRF-CEM cells assessed as increase in caspase 3/7 activity using Ac-DEVD-AMC as substrate at 5 times IC50 concentration measured after 24 hrs by fluorescence assay; type: functional, cell-based
[5] = tested on: CCRF-CEM; assay: Induction of apoptosis in human CCRF-CEM cells assessed as early apoptotic cells at 5 times IC50 concentration measured after 24 hrs by AnnexinV-FITC/propidium iodide staining based flow cytometry analysis (reference value: 2.8 %); type: functional
[6] = Chemical stability of compound in PBS buffer assessed as parent compound remaining at 2 uM at pH 7.4 and 37 degC incubated for 60 mins by RF-MS analysis; type: physicochemical; conditions: read-out: Stability
[7] = tested on: A549; assay: Cytotoxicity against human A549 cells incubated for 72 hrs by MTS assay; type: functional, cell-based; conditions: A549, 72 h
[8] = Microsomal stability in human liver microsomes assessed as parent compound remaining at 2 uM incubated for 60 mins by RF-MS analysis; type: ADME, Microsome; conditions: read-out: Stability
[9] = tested on: CCRF-CEM; assay: Induction of apoptosis in human CCRF-CEM cells assessed as activation of procaspase 8 at 5 times IC50 concentration measured after 24 hrs by Western blot analysis; type: functional, cell-based
[10] = tested on: U2OS; assay: Cytotoxicity against human U2OS cells incubated for 72 hrs by MTS assay; type: functional, cell-based
[11] = Chemical stability of compound in PBS buffer assessed as parent compound remaining at 2 uM at pH 7.4 and 37 degC incubated for 15 mins by RF-MS analysis; type: physicochemical; conditions: read-out: Stability
[12] = tested on: CCRF-CEM; assay: Induction of apoptosis in human CCRF-CEM cells assessed as activation of PARP cleavage at 5 times IC50 concentration measured after 24 hrs by Western blot analysis; type: functional, cell-based
[13] = tested on: CCRF-CEM; assay: Induction of apoptosis in human CCRF-CEM cells assessed as necrotic cells at 5 times IC50 concentration measured after 24 hrs by AnnexinV-FITC/propidium iodide staining based flow cytometry analysis (reference value: 0.1 %); type: functional
[14] = tested on: HCT-116; assay: Cytotoxicity against human HCT116 cells incubated for 72 hrs by MTS assay; type: functional, cell-based; conditions: HCT-116, 72 h
[15] = Microsomal stability in human liver microsomes assessed as parent compound remaining at 2 uM incubated for 30 mins by RF-MS analysis; type: ADME, Microsome; conditions: read-out: Stability
[16] = tested on: CCRF-CEM; assay: Induction of apoptosis in human CCRF-CEM cells assessed as decrease in Bcl-2 expression at 5 times IC50 concentration measured after 24 hrs by Western blot analysis; type: functional, cell-based
[17] = Chemical stability of compound in PBS buffer assessed as parent compound remaining at 2 uM at pH 7.4 and 37 degC incubated for 30 mins by RF-MS analysis; type: physicochemical; conditions: read-out: Stability
[18] = tested on: CCRF-CEM; assay: Induction of apoptosis in human CCRF-CEM cells assessed as activation of caspase 3 at 5 times IC50 concentration measured after 24 hrs by Western blot analysis; type: functional, cell-based
[19] = Cytotoxicity against human CEM-DNR-bulk cells incubated for 72 hrs by MTS assay; type: functional, cell-based
[20] = Stability in human plasma assessed as parent compound remaining at 2 uM incubated for 120 mins by RF-MS analysis; type: ADME, cell-free; conditions: read-out: Stability
[21] = Solubility of compound in 10 % DMSO in water by HPLC-MS analysis; type: physicochemical
[22] = tested on: K562; assay: Cytotoxicity against human K562 cells incubated for 72 hrs by MTS assay; type: functional, cell-based; conditions: K562, 72 h
[23] = tested on: CCRF-CEM; assay: Cell cycle arrest in human CCRF-CEM cells assessed as increase in G2/M phase accumulation at 5 times IC50 measured after 24 hrs by propidium iodide/RNase staining based flow cytometry analysis; type: functional
[24] = Solubility of compound in 5 % DMSO in water by HPLC-MS analysis; type: physicochemical
[25] = tested on: CCRF-CEM; assay: Induction of apoptosis in human CCRF-CEM cells assessed as late apoptotic cells at 5 times IC50 concentration measured after 24 hrs by AnnexinV-FITC/propidium iodide staining based flow cytometry analysis (reference value: 0.1 %); type: functional
[26] = tested on: CCRF-CEM; assay: Cytotoxicity against human CCRF-CEM cells incubated for 72 hrs by MTS assay; type: functional, cell-based
[27] = tested on: CCRF-CEM; assay: Cell cycle arrest in human CCRF-CEM cells assessed as decrease in proportion of cells in S phase at 5 times IC50 measured after 24 hrs by propidium iodide/RNase staining based flow cytometry analysis; type: functional
[28] = Stability in human plasma assessed as parent compound remaining at 2 uM incubated for 60 mins by RF-MS analysis; type: ADME, cell-free; conditions: read-out: Stability
[29] = Solubility of compound in 0.5 % DMSO in water by HPLC-MS analysis; type: physicochemical
[30] = Permeability of compound in PBS buffer assessed as permeability coefficient at pH 7.4 incubated for 18 hrs by PAMPA based RF-MS analysis; type: ADME; conditions: pH 7.4, 18 h
[31] = tested on: BJ; assay: Cytotoxicity against human BJ cells incubated for 72 hrs by MTS assay; type: cell-based
[32] = tested on: CCRF-CEM; assay: Induction of apoptosis in human CCRF-CEM cells assessed as activation of caspase 7 at 5 times IC50 concentration measured after 24 hrs by Western blot analysis; type: functional, cell-based
[33] = tested on: CCRF-CEM; assay: Induction of apoptosis in human CCRF-CEM cells assessed as viable cells at 5 times IC50 concentration measured after 24 hrs by AnnexinV-FITC/propidium iodide staining based flow cytometry analysis (reference value: 97 %); type: functional
[34] = tested on: HCT-116; assay: Cytotoxicity against p53 knockout human HCT116 cells incubated for 72 hrs by MTS assay; type: functional, cell-based; conditions: HCT-116, 72 h
[35] = tested on: CCRF-CEM; assay: Induction of mitochondrial membrane depolarization in human CCRF-CEM cells at 5 times IC50 measured after 24 hrs by JC-1 staining based flow cytometry analysis (reference value: 8.4 %); type: functional
[36] = Microsomal stability in human liver microsomes assessed as parent compound remaining at 2 uM incubated for 15 mins by RF-MS analysis; type: ADME, Microsome; conditions: read-out: Stability
[37] = tested on: CCRF-CEM; assay: Induction of apoptosis in human CCRF-CEM cells assessed as increase in BAX expression at 5 times IC50 concentration measured after 24 hrs by Western blot analysis; type: functional, cell-based
[38] = Stability in human plasma assessed as parent compound remaining at 2 uM incubated for 30 mins by RF-MS analysis; type: ADME, cell-free; conditions: read-out: Stability
[39] = Chemical stability of compound in PBS buffer assessed as parent compound remaining at 2 uM at pH 7.4 and 37 degC incubated for 120 mins by RF-MS analysis; type: physicochemical; conditions: read-out: Stability
[40] = tested on: MRC5; assay: Cytotoxicity against human MRC5 cells incubated for 72 hrs by MTS assay; type: cell-based; conditions: MRC5, 72 h
[41] = Stability in human plasma assessed as parent compound remaining at 2 uM incubated for 15 mins by RF-MS analysis; type: ADME, cell-free; conditions: read-out: Stability

C[C@H]1[C@H](C)CC[C@]2(C(=O)O)CC[C@]3(C)C(=CC[C@@H]4[C@@]5(C)CC(Br)C(=O)C(C)(C)[C@@H]5CC[C@]43C)[C@H]12 (stereo partly specified)
Activity [1]: Active
IC50 [2]: 25.1 µM
fraction unbound at 4 h, 10 µM [3]: 0.176
Activity [4]: Active
Activity [5]: 16.5%
remaining at 1 h, 2 µM [6]: 99.1%
IC50 [7]: 27.6 µM
remaining at 1 h, 2 µM [8]: 66.2%
Activity [9]: Active
IC50 [10]: 20.7 µM
remaining at 0.25 h, 2 µM [11]: 99.6%
Activity [12]: Active
Activity [13]: 0.4%
IC50 [14]: 28.4 µM
remaining at 0.5 h, 2 µM [15]: 80.7%
Activity [16]: Active
remaining at 0.5 h, 2 µM [17]: 99.2%
Activity [18]: Active
IC50 [19]: 21.8 µM
remaining at 2 h, 2 µM [20]: 85.5%
solubility [21]: 83 µM (≈ 44.3 µg/mL)
IC50 [22]: 38.8 µM
Activity [23]: Active
solubility [24]: 30 µM (≈ 16 µg/mL)
Activity [25]: 2.4%
IC50 [26]: 3.6 µM
Activity [27]: Active
remaining at 1 h, 2 µM [28]: 94.9%
solubility [29]: 24 µM (≈ 12.8 µg/mL)
log(permeability) [30]: -4.93
IC50 [31]: 49.5 µM
Activity [32]: Active
Activity [33]: 80.7%
IC50 [34]: 29.8 µM
Activity [35]: 36.3%
remaining at 0.25 h, 2 µM [36]: 93.4%
Activity [37]: Active
remaining at 0.5 h, 2 µM [38]: 98.2%
remaining at 2 h, 2 µM [39]: 88.5%
IC50 [40]: 29.3 µM
remaining at 0.25 h, 2 µM [41]: 98.5%
